Changes are numbered by the printed parent chain. In brackets after ≈: the same amount, converted by molar mass. Where two headings read alike, the source gives them in different places. One block for each compound: values may come before it.
What was measured:
[1] = test system: Salmonella typhimurium TA98, TA100, TA1535, TA1537
GPX4 = biological target: T1, GPX4 (Homo sapiens, UniProt P36969); assay: GPX4 activity assay in cell lysates (NADPH-coupled); format: biochemical; design: endogenous in cells; host or cells: A-673 cell lysate; conditions: for GPX4% inhibition at 200 (μM): generation 1, mean ± s.d., n = 3
T1 sequence (P36969 1-170 isoform P36969-2): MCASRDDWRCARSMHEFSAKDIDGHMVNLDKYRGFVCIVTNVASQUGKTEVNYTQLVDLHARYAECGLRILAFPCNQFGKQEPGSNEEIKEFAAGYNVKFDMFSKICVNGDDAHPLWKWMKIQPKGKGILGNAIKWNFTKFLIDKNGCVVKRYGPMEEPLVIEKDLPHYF
In short: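 Native GPX4 in lysates of A-673 cells grown with 20 nM sodium selenite; lysate preincubated with compound 45 min at 37 °C in pH 8.0 buffer with 3 mM GSH, 0.5 mM NADPH and glutathione reductase. Reaction started with phosphatidylcholine hydroperoxide; NADPH consumption followed at 340 nm over 25 min; triplicates.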

GPX4^U46C = biological target: T2, GPX4^U46C (Homo sapiens, UniProt P36969, U73C); assay: Microscale thermophoresis (MST) binding; conditions: half maximal effective concentration, covalent mechanism
T2 construct: made in house; host or cells: E. coli BL21-Gold (DE3)
T2 sequence (P36969 1-170 isoform P36969-2 U46C): T1 sequence (P36969 1-170 isoform P36969-2) with U46C
Experimental: The bacterial expression vector pET-15b-His-tagged-c-GPX4^U46C was prepared as previously described (Yang et al. 2016). The C-terminal His-tagged GPX4U46C protein was expressed in E. coli and purified according to a protocol modified from Scheerer et al. 2007. First, pET-15b-His-tagged-c-GPX4^U46C was transformed into XL10-Gold (Agilent #200314) E. coli ultracompetent cells for plasmid DNA production and isolated using QIAprep Spin Miniprep Kit (Qiagen). For protein expression, pET-15b-His-tagged-c-GPX4^U46C was then transformed into BL21-Gold (DE3) E. coli competent cells (Agilent #230132) and plated on LB agar with 100 μg/mL ampicillin. A starter culture was inoculated in 7 mL of LB medium with 100 μg/mL ampicillin using a single colony and allowed to grow in a 37° C. shaker (225 rpm) for 16 hours. 3 mL of the starter culture was added to 1 L of LB medium with 100 μg/mL ampicillin, which was then incubated in a 37° C. shaker (225 rpm) to an OD600 of 0.9. At that point, the incubation temperature was reduced to 15° C. and the culture was allowed to equilibrate for 1 hour. Expression of the recombinant enzyme was induced by addition of isopropyl β-D-1-thiogalactopyranoside (IPTG, 1 mM final concentration) overnight for 12-15 hours shaking at 225 rpm and 15° C. The next morning, cells were harvested by centrifugation at 4000 rpm and 4° C. for 20 minutes. The cell pellet was then frozen at −80° C. for at least 1 hour or until lysis. To lyse the cells, the cell pellet was resuspended with 25 mL of chilled lysis buffer (100 mM Tris pH 8.0, 300 mM NaCl, 20 mM imidazole, 3 mM TCEP, and 2.5 mini tablets of complete Protease Inhibitor Cocktail (Roche-Sigma #11836170001)) then lysed using an Emulsiflex C3 high-pressure homogenizer. To remove cell debris, the lysate was subjected to centrifugation at 10000 rpm and 4° C. for 20 minutes. The supernatant was centrifuged once more at the same conditions, then the clarified lysate was applied onto a 5-mL HisTrap HP column (Cytiva #17-5248-01), washed with 90% Buffer A (100 mM Tris pH 8.0, 300 mM NaCl, 5% glycerol, 3 mM TCEP) 10% Buffer B (Buffer A with 500 mM imidazole), then eluted with a continuous gradient (10-100% Buffer B). The protein was concentrated using Amicon Ultra-15 centrifugal filter units with a 10 kDa molecule weight cutoff (EMD Millipore #UFC901024) then further purified by FPLC on a size exclusion HiLoad Superdex 200 column (Cytiva) in crystallization buffer (20 mM Tris pH 8.0, 300 mM NaCl, 3 mM TCEP). The fractions containing 90-95% pure GPX4 protein, as evaluated by SDS-PAGE, were pooled and concentrated using the same Amicon centrifugal filter units as above to 5 mg/mL. Concentration was determined by Nanodrop. Protein was aliquoted into Eppendorf tubes, flash frozen using liquid nitrogen, and stored at −80° C. until use.
MST experiments were conducted using a Monolith NT.115 (Nanotemper Technologies) according to manufacturer instructions. To label the protein, 90 μL of 200 nM GPX4^U46C was combined with 90 μL of 100 nM RED-tris-NTA dye diluted in PBS buffer with 0.05% Tween 20 (PBST buffer). The mixture was incubated for 30 minutes at room temperature, followed by centrifugation for 10 minutes at 4° C. and 15,000×g. To assess binding of the compounds, a 16-point 2-fold dilution series in PBST buffer was prepared and mixed in a 1:1 ratio with the labeled protein solution for a final volume of 20 μL. The reaction mixture was loaded into standard treated capillary tubes and analyzed with the Monolith NT.115 at 40% LED power and 40% MST power with a laser-on time of 5 seconds. The data were analyzed in MO.Affinity Analysis v2.3 software.

in vitro [2] = format: in vitro ADME, mouse; conditions: mouse, microsomes
Experimental: (§1) […]. The incubation timepoints measured were 0, 5, 10, 15, 30, and 45 minutes. All samples were prepared in duplicate and analyzed by LC-MS/MS.

[3] = not given; remark: listed apart in the source
[4] = Kinetic aqueous solubility; conditions: aqueous solubility; Table 9
in vitro [5] = format: in vitro ADME, human; conditions: human, microsomes
Experimental: as §1

HT-1080 cells = assay: Cellular dose response assay, HT-1080 with and without Fer-1; format: cell-based, human
In short: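 1500 cells/well, o/n; 12-pt 2-fold dilns, ±Fer-1 (HT-1080), 0.4% DMSO, n=3 technical; 48 h, 37 °C/5% CO2; CellTiter-Glo lum. Huh7, HLF, HT-1080 grown in DMEM/10% HI-FBS; SK-HEP-1 in EMEM/10% HI-FBS.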

SMILES: CN(N=O)C(=O)N[C@H]1C(O)O[C@H](CO)[C@@H](O)[C@@H]1O (mixture of isomers) [Streptozotocin]
Positive Significance (− to +++) TA98 − S9 ([1]; 2.5 μM): + (Weak positive, if p < 0.05) | Positive Significance (− to +++) TA100 + S9 ([1]; 2.5 μM): +++ (Very strong positive, if p < 0.001) | Positive Significance (− to +++) TA100 − S9 ([1]; TA100, − S9, 2.5 μM): +++ (Very strong positive, if p < 0.001) | Positive Significance (− to +++) TA1535 + S9 ([1]; 2.5 μM): +++ (Very strong positive, if p < 0.001) | Positive Significance (− to +++) TA1535 − S9 ([1]; TA1535, − S9, 2.5 μM): +++ (Very strong positive, if p < 0.001)

SMILES: Nc1ccc2cc3ccccc3cc2c1 [Compound 2-Aminoanthracene, 2-Aminoanthracene]
Positive Significance (− to +++) TA98 + S9 ([1]; 1 μM): +++ (Very strong positive, if p < 0.001) | Positive Significance (− to +++) TA100 + S9 ([1]; 1 μM): +++ (Very strong positive, if p < 0.001) | Positive Significance (− to +++) TA1535 + S9 ([1]; 1 μM): ++ (Strong positive, if p < 0.01) | Positive Significance (− to +++) TA1537 + S9 ([1]; 1 μM): +++ (Very strong positive, if p < 0.001)

SMILES: O=[N+]([O-])c1ccc2c(c1)Cc1ccccc1-2 [Compound 2-Nitrofluorene, 2-Nitrofluorene]
Positive Significance (− to +++) TA98 + S9 ([1]; 30 μM): +++ (Very strong positive, if p < 0.001) | Positive Significance (− to +++) TA98 − S9 ([1]; 30 μM): +++ (Very strong positive, if p < 0.001)

SMILES: Nc1c2ccccc2nc2ccccc12 [Compound 9-Aminoacridine, 9-Aminoacridine]
Positive Significance (− to +++) TA1537 + S9 ([1]; 10 μM): ++ (Strong positive, if p < 0.01) | Positive Significance (− to +++) TA1537 − S9 ([1]; TA1537, − S9, 10 μM): +++ (Very strong positive, if p < 0.001)

SMILES: Cn1nc(C(=O)NC(C)(C)COC(=O)CCl)c2ccc(-c3ccc4c(c3)OCO4)cc21 [QW-594]
GPX4 inhibitory activity, result in words (GPX4): comparable to that of QW-446 | GPX4% inhibition at 2.5 μM (GPX4; 2.5 μM): 71.5 ± 3.0% | GPX4 inhibition rate (GPX4; concentration not given): 75% | Plasma Stability t1/2 (min) human: 6.6 min | Microsome Stability t1/2 (min) mouse (in vitro [2]): 137 min | unbound clearance rate (in vitro [2]): 0.085 µL/min/mg | Selectivity (HT-1080 cells): 3.3 | IC50 (HT-1080 cells; HT1080 + Fer-1, read-out: IC50 (uM) HT1080 + Fer-1): 8.8 µM | IC50 (HT-1080 cells; HT1080, without Fer-1, read-out: IC50 (uM) HT1080): 2.7 µM | Plasma Stability t1/2 (min) mouse [3]: 17.0 min | half-life in mouse plasma [3]: 17 min | Solubility [4]: 1.0 µM (≈ 0.444 µg/mL) | Microsome Stability t1/2 (min) human (in vitro [5]): 250 min

Second part, the compound after the results:

GPX4% inhibition at 200 (μM) (GPX4): 50.0 ± 32.5% | EC50 (GPX4^U46C): 0.836 µM
SMILES: COc1cccc2[nH]c(C(=O)NC(C)(C)COC(=O)CCl)cc12 [QW-144]

GPX4% inhibition at 200 (μM) (GPX4): 50.9 ± 3.6% | EC50 (GPX4^U46C): 473 µM
SMILES: Cc1ccc2[nH]c(C(=O)NC(C)(C)COC(=O)CCl)cc2c1 [QW-155]

GPX4% inhibition at 200 (μM) (GPX4): 53.3 ± 37.8% | EC50 (GPX4^U46C): 2.1 µM
SMILES: CC(C)(COC(=O)CCl)NC(=O)c1cc2cc(Cl)ccc2[nH]1 [QW-164]

GPX4% inhibition at 5 μM (GPX4): 91.5 ± 2.2% | Plasma Stability t1/2 (min) human: 73.2 min | Microsome Stability t1/2 (min) mouse (in vitro [2]): 25 min | Plasma Stability t1/2 (min) mouse [3]: 12.5 min | Solubility [4]: 7.8 µM (≈ 3.84 µg/mL) | Microsome Stability t1/2 (min) human (in vitro [5]): 49 min
SMILES: CC(C)Oc1ccc(-c2ccc3c(C(=O)NC(C)(C)COC(=O)CCl)nn(C)c3c2)cc1Cl [QW-550]

GPX4% inhibition at 5 μM (GPX4): 87.6 ± 2.8% | Plasma Stability t1/2 (min) human: 116 min | Microsome Stability t1/2 (min) mouse (in vitro [2]): 24 min | Plasma Stability t1/2 (min) mouse [3]: 23.9 min | Solubility [4]: 15.6 µM (≈ 8.21 µg/mL) | Microsome Stability t1/2 (min) human (in vitro [5]): 12 min
SMILES: Cn1nc(C(=O)NC(C)(C)COC(=O)CCl)c2ccc(-c3ccc(Oc4ccccc4)c(Cl)c3)cc21 [QW-561]

GPX4% inhibition at 5 μM (GPX4): 80.7 ± 14.8% | Plasma Stability t1/2 (min) human: 56.7 min | Microsome Stability t1/2 (min) mouse (in vitro [2]): 15 min | Plasma Stability t1/2 (min) mouse [3]: 16.9 min | Solubility [4]: 15.6 µM (≈ 7.31 µg/mL) | Microsome Stability t1/2 (min) human (in vitro [5]): 22 min
SMILES: Cn1nc(C(=O)NC(C)(C)COC(=O)CCl)c2ccc(-c3ccc(Cl)c(Cl)c3)cc21 [QW-570]

Source: patent US20250248979A1, “NOVEL GPX4 INHIBITORS AND USES THEREOF” (THE TRUSTEES OF COLUMBIA UNIVERSITY IN THE CITY OF NEW YORK, priority 2022, published 2025)
